Test results from PMC11813147, “Bioactivity assessment of peptides derived from salted jellyfish (Rhopilema hispidum) byproducts” (PLOS ONE, 2025).

Key:
[1] = system: angiotensin I-converting enzyme (ACE); experiment: ACE inhibitory activity assay (fluorometric ACE activity assay kit); format: biochemical; conditions: peptide sample 1 mg/mL; for inhibition / ACE inhibitory activity, mean±SD: 37 °C, fluorescence ex 320/em 405 nm, mean ± SD, n = 3
Description: The ACE inhibitory activity assay was performed following the method outlined by Batista et al., with slight modifications, using a fluorometric angiotensin I-converting enzyme (ACE) activity assay kit from Sigma-Aldrich (catalog number CS0002), Burlington, Massachusetts, USA. In summary, 10 µ L of the sample (1 mg/mL for the peptide sample and 50 µg/mL for ramipril) was combined with 40 µ L of the ACE solution (CS0002B) in 96-well flat-bottom black plates at 37 °C for 5 min. Next, 50 µ L of the substrate solution (CS0002C) was added to this mixture to initiate the reaction. A fluorescence multiwell plate reader was used to monitor the changes in fluorescence. The sample’s fluorescence was measured every min for 5 min, with excitation at 320 nm and emission at 405 nm. All reagents, except the test sample, were prepared to assess the ACE positive control activity. A kit standard solution (CS0002D) was diluted with assay buffer (CS0002A) to create different concentrations (nmol) of the standard solution, allowing generation of a standard curve. The slope of the standard curve (RFU/nmol) and the slope of the sample kinetic curve were utilized to calculate the ACE activity using the following equation (3):
ACEactivitynmol/min=Slopesample/Slopestandard×DF (3)
Where Slopesample refers to the slope of the blank-subtracted sample curve (RFU/min), Slopestandard refers to the slope of the blank-subtracted standard curve (RFU/nmol), DF is the dilution factor, and 0.1 nmol/min is equivalent to […].
In this study, the results of ACE inhibitory activity are expressed as percentages. The ACE inhibitory activity (%) was calculated using the following equation (4):
ACEinhibitoryactivity%=ACEPC–ACES/ACEPC×100 (4)
Where ACEPC represents the ACE activity of the positive control, and ACES denotes the ACE activity of the sample.

[2] = DPPH radical scavenging assay; format: biochemical; conditions: for DPPH, mean±SD / DPPH: supplement tables; for DPPH, mean±SD / DPPH radical scavenging activity (TEAC): n = 3, mean ± SD; for DPPH radical scavenging activity (TEAC): 10 µL sample + 190 µL 0.1 mM DPPH in 70% ethanol, 30 min dark, room temperature, 517 nm, Trolox standard curve
Description: The DPPH radical scavenging activity of the sample was assessed following a modified protocol based on a previous study. In each well of a 96-well plate, 10 μL of the sample was added, followed by 190 μL of 0.1 mM DPPH solution in 70% ethanol. The mixture was then incubated at room temperature in the dark for 30 min. After the incubation period, the absorbance of the mixture was measured at 517 nm. The DPPH radical scavenging activity was calculated using the following equation (1):
DPPHradicalscavengingactivity%=Acontrol–Asample/Acontrol×100 (1)
In this equation, Acontrol represents the absorbance of a control solution containing all reagents except for the test samples, while Asample is the absorbance of the mixture (the sample combined with 0.1 mM DPPH). To determine the Trolox equivalent antioxidant capacity (TEAC), a Trolox standard curve was utilized. The results were expressed as millimoles of Trolox equivalents per milligram of protein (mM TE/mg protein).

Sequence | inhibition ([1]; SD) | ACE inhibitory activity ([1]; replicate 1) | ACE inhibitory activity ([1]; replicate 2) | ACE inhibitory activity ([1]; replicate 3) | DPPH, mean±SD [2] | DPPH ([2]; replicate 1) | DPPH ([2]; replicate 2) | DPPH ([2]; replicate 3) | ACE inhibitory activity, mean±SD ([1]; SD) | ACE inhibitory activity, mean±SD [1] | DPPH radical scavenging activity (TEAC) [2] | DPPH radical scavenging activity (TEAC) ([2]; listed as MVVACVLPEA)
GKNCGETVWE [P9, synthesized peptide identified from jellyfish fraction PUR20C] | 7.53 ± 1.74% | 5.53% | 8.68% | 8.39% | 40.86±0.85^C TE/mg protein | 40.24 TE/mg protein | 41.83 TE/mg protein | 40.51 TE/mg protein | – | – | – | –
PFTMYFLL [P14, synthesized peptide identified from jellyfish fraction PUR20C] | – | 81.67% | 81.67% | 82.25% | 6.29±0.53^D TE/mg protein | 6.29 TE/mg protein | 5.76 TE/mg protein | 6.82 TE/mg protein | 81.87±0.33^B % | – | – | –
RPLAKIIP [P8, synthesized peptide identified from jellyfish fraction PUR20C] | – | 32.44% | 26.14% | 31.29% | 2.22 TE/mg protein | 1.78 TE/mg protein | 1.78 TE/mg protein | 3.11 TE/mg protein | 29.96±3.35^F % | – | – | –
EIDKLPPESRP [P7, synthesized peptide identified from jellyfish fraction PUR20C] | 8.68 ± 0.49% | 8.11% | 8.96% | 8.96% | 1.96 TE/mg protein | 1.52 TE/mg protein | 1.78 TE/mg protein | 2.58 TE/mg protein | – | – | – | –
KFNEVVYFL [P15, synthesized peptide identified from jellyfish fraction PUR20C] | – | 57.63% | 51.33% | 57.34% | 6.20±1.00^D TE/mg protein | 5.49 TE/mg protein | 5.76 TE/mg protein | 7.35 TE/mg protein | 55.43±3.55^C % | – | – | –
TDSPAPSETTD [P2, synthesized peptide identified from jellyfish fraction PUR20C] | – | 0.66% | 1.24% | 0.66% | 2.84 TE/mg protein | 2.31 TE/mg protein | 3.11 TE/mg protein | 3.11 TE/mg protein | 0.85±0.33^K % | – | – | –
RARVVPMY [P6, synthesized peptide identified from jellyfish fraction PUR20C] | – | 33.87% | 33.01% | 34.16% | 3.28 TE/mg protein | 3.11 TE/mg protein | 2.84 TE/mg protein | 3.90 TE/mg protein | 33.68±0.59^E % | – | – | –
HSVLTASYRN [P5, synthesized peptide identified from jellyfish fraction PUR20C] | – | 24.71% | 31.01% | 31.58% | 3.20 TE/mg protein | 2.84 TE/mg protein | 3.11 TE/mg protein | 3.64 TE/mg protein | 29.10±3.81^F % | – | – | –
DAENKENVEE [P18, synthesized peptide identified from jellyfish fraction PUR20C] | – | 20.13% | 23.85% | 24.42% | 6.03±0.79^D TE/mg protein | 5.23 TE/mg protein | 6.03 TE/mg protein | 6.82 TE/mg protein | 22.80±2.33^G % | – | – | –
MVVACVLPEA [P16, synthesized peptide identified from jellyfish fraction PUR20C] | – | 92.27% | 89.69% | 93.12% | 56.07±0.30^A TE/mg protein | 55.89 TE/mg protein | 55.89 TE/mg protein | 56.42 TE/mg protein | – | 91.69% | strongest DPPH radical scavenging activity | 56.07 mM TE/mg protein
LGAEGRSP [P13, synthesized peptide identified from jellyfish fraction PUR20C] | – | 21.56% | 18.41% | 21.56% | 5.85±0.66^D TE/mg protein | 5.23 TE/mg protein | 5.76 TE/mg protein | 6.56 TE/mg protein | 20.51±1.81^G % | – | – | –
PMETDDQPNN [P17, synthesized peptide identified from jellyfish fraction PUR20C] | – | 9.82% | 13.54% | 13.83% | 5.23±0.53^D TE/mg protein | 4.70 TE/mg protein | 5.23 TE/mg protein | 5.76 TE/mg protein | 12.40±2.23^H % | – | – | –
LNIPKPKLNLL [P11, synthesized peptide identified from jellyfish fraction PUR20C] | – | 19.27% | 25.00% | 24.42% | 3.81±0.40^E TE/mg protein | 3.90 TE/mg protein | 3.37 TE/mg protein | 4.17 TE/mg protein | 22.90±3.15^G % | – | – | –
NQKAMQELNE [P1, synthesized peptide identified from jellyfish fraction PUR20C] | 6.48 ± 0.33% | 6.67% | 6.67% | 6.10% | 1.16±0.15^H TE/mg protein | 0.99 TE/mg protein | 1.25 TE/mg protein | 1.25 TE/mg protein | – | – | – | –
EQIYPMGEGDEL [P4, synthesized peptide identified from jellyfish fraction PUR20C] | – | 5.53% | 4.10% | 5.82% | 3.81±0.30^E TE/mg protein | 3.64 TE/mg protein | 3.64 TE/mg protein | 4.17 TE/mg protein | 5.15±0.92^J % | – | – | –
